# Structures can show the parent of a compound that is named as a salt.
# Target: CCR4 (Homo sapiens (Human), UniProt P51679)
# Experiment: Calcium mobilization (Ca Flux) assay
# Type: cell-based
# Settings: not given
# Method: Calcium Mobilization Assay. Calcium mobilization experiments may be performed by labeling the human T-cell line CEM with […] dye (45 min at room temperature), washing with PBS, and re-suspending into flux buffer (HBSS with 1% FBS).
# Sequence of CCR4 (P51679 whole entry): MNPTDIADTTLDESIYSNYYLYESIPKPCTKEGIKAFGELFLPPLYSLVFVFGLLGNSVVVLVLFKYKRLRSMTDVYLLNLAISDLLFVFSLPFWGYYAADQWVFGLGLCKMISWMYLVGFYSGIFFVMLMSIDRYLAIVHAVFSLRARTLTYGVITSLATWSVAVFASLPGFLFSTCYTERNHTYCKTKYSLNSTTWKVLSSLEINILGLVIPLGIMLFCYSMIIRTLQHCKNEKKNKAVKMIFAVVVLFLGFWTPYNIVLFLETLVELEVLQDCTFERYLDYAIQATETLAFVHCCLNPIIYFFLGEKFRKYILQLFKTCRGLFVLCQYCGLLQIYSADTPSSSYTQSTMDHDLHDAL
row,SMILES,IC50 [nM]
1,"Cc1nn([C@H](C)c2ccc(Cl)cc2Cl)c2nc(N3CCC(N4CCCC(CCC(=O)O)C4)C(C)C3)cnc12 (mixture of isomers) [Example 41, 3-(1′-(1-((R)-1-(2,4-dichlorophenyl)ethyl)-3-methyl-1H-pyrazolo[3,4-b]pyrazin-6-yl)-3′-methyl-[1,4′-bipiperidin]-3-yl)propanoic acid]",> 500
2,"Cc1nn([C@H](C)c2ccc(Cl)cc2Cl)c2nc(N3CCC(N4CCC[C@H]4C4CC4C(=O)O)C(C)C3)cnc12 (mixture of isomers) [Example 54, 2-((2S)-1-(1-(1-((R)-1-(2,4-Dichlorophenyl)ethyl)-3-methyl-1H-pyrazolo[3,4-b]pyrazin-6-yl)-3-methylpiperidin-4-yl)pyrrolidin-2-yl)cyclopropane-1-carboxylic acid]",> 500
3,"CC1CC(c2cnc3c(C#N)nn([C@H](C)c4ccc(Cl)cc4Cl)c3n2)=CCC1N1CCC[C@H]1CCC(=O)O (mixture of isomers) [Example 74, 3-((2S)-1-(4-(3-Cyano-1-((R)-1-(2,4-dichlorophenyl)ethyl)-1H-pyrazolo[3,4-b]pyrazin-6-yl)-6-methylcyclohex-3-en-1-yl)pyrrolidin-2-yl)propanoic acid 2,2,2-trifluoroacetate]",< 100
4,"COC[C@@H]1CCCN1C1CC=C(c2cnc3c(C#N)nn([C@H](C)c4ccc(Cl)cc4Cl)c3n2)CC1C (mixture of isomers) [Example 84, 1-((R)-1-(2,4-Dichlorophenyl)ethyl)-6-(4-((S)-2-(methoxymethyl)pyrrolidin-1-yl)-5-methylcyclohex-1-en-1-yl)-1H-pyrazolo[3,4-b]pyrazine-3-carbonitrile hydrochloride]",100 to 500
5,"CC1CC(c2cnc3c(C#N)nn([C@H](C)c4ccc(Cl)cc4Cl)c3n2)=CCC1N1CCC[C@H]1CC(=O)O (mixture of isomers) [Example 85, 2-((2S)-1-(4-(3-Cyano-1-((R)-1-(2,4-dichlorophenyl)ethyl)-1H-pyrazolo[3,4-b]pyrazin-6-yl)-6-methylcyclohex-3-en-1-yl)pyrrolidin-2-yl)acetic acid 2,2,2-trifluoroacetate]",100 to 500
6,"CCOC(=O)c1nn(C(C)c2ccc(Cl)cc2Cl)c2nc(N3CCC(N4CCCCC4)CC3)cnc12 (racemic) [Example 1, Ethyl 6-([1,4′-bipiperidin]-1′-yl)-1-(1-(2,4-dichlorophenyl)ethyl)-1H-pyrazolo[3,4-b]pyrazine-3-carboxylate hydrochloride]",> 500
7,"Cc1nn([C@H](C)c2ccc(Cl)cc2Cl)c2nc(N3CCC(N4CCC[C@H]4CCC(O)C(F)(F)F)C(C)C3)cnc12 (single isomer, unassigned) [Example 46, hydrochloride]",100 to 500
8,"Cc1nn([C@H](C)c2ccc(Cl)cc2Cl)c2nc(N3CCC(N4CCC[C@H]4CCC(O)C(F)(F)F)C(C)C3)cnc12 (single isomer, unassigned) [Example 47, hydrochloride]",100 to 500
9,"Cc1nn([C@H](C)c2ccc(Cl)cc2Cl)c2nc(N3CCC(N4CCC[C@H]4CC(F)C(=O)O)C(C)C3)cnc12 (single isomer, unassigned) [Example 57]",> 500
10,"CC1CCCCN1C1CCN(c2cnc3c(C(N)=O)nn(C(C)c4ccc(Cl)cc4Cl)c3n2)CC1 (centres unmarked) [Example 3, 1-(1-(2,4-Dichlorophenyl)ethyl)-6-(2-methyl-[1,4′-bipiperidin]-1′-yl)-1H-pyrazolo[3,4-b]pyrazine-3-carboxamide hydrochloride]",> 500
11,"CCC1CN(c2cnc3c(C#N)nn(C(C)c4ccc(Cl)cc4Cl)c3n2)CCC1N1CCCCC1 (centres unmarked) [Example 7, 1-(1-(2,4-Dichlorophenyl)ethyl)-6-(3′-ethyl-[1,4′-bipiperidin]-1′-yl)-1H-pyrazolo[3,4-b]pyrazine-3-carbonitrile 2,2,2-trifluoroacetate]",100 to 500
12,"CC1CN(c2cnc3cnn(C(C)c4ccc(Cl)cc4Cl)c3n2)CCC1N1CCCCC1 (centres unmarked) [Example 8, 1-(1-(2,4-Dichlorophenyl)ethyl)-6-(3′-methyl-[1,4′-bipiperidin]-1′-yl)-1H-pyrazolo[3,4-b]pyrazine hydrochloride]",100 to 500
13,"CCOC(=O)c1nn(Cc2ccc(Cl)cc2Cl)c2nc(N3CCC(N4CCCCC4)C(C)C3)cnc12 (centres unmarked) [Example 11, Ethyl 1-(2,4-dichlorobenzyl)-6-(3′-methyl-[1,4′-bipiperidin]-1′-yl)-1H-pyrazolo[3,4-b]pyrazine-3-carboxylate hydrochloride]",100 to 500
14,"Cc1nn([C@H](C)c2ccc(Cl)cc2Cl)c2nc(N3CC(C)C(N4CCCC4)C[C@@H]3C)cnc12 (stereo partly drawn) [Example 18, 1-((R)-1-(2,4-Dichlorophenyl)ethyl)-6-((2S)-2,5-dimethyl-4-(pyrrolidin-1-yl)piperidin-1-yl)-3-methyl-1H-pyrazolo[3,4-b]pyrazine hydrochloride]",100 to 500
15,"Cc1nn([C@H](C)c2ccc(Cl)cc2Cl)c2nc(N3CC[C@H](N4CCC[C@H]4C)[C@H](C)C3)cnc12 [Example 20, 1-((R)-1-(2,4-Dichlorophenyl)ethyl)-3-methyl-6-((3R,4S)-3-methyl-4-((R)-2-methylpyrrolidin-1-yl)piperidin-1-yl)-1H-pyrazolo[3,4-b]pyrazine hydrochloride]",< 100

# Second part, the compound after the results:
row,IC50 [nM],SMILES
1,> 500,"Cc1nn([C@H](C)c2ccc(Cl)cc2Cl)c2nc(N3CCC(N4CCC[C@H]4CCC(=O)O)C[C@@H]3C)cnc12 (mixture of isomers) [Example 50, 3-((2S)-1-((2S)-1-(1-((R)-1-(2,4-Dichlorophenyl)ethyl)-3-methyl-1H-pyrazolo[3,4-b]pyrazin-6-yl)-2-methylpiperidin-4-yl)pyrrolidin-2-yl)propanoic acid 2,2,2-trifluoroacetate]"
2,> 500,"COC(C[C@@H]1CCCN1C1CCN(c2cnc3c(C)nn([C@H](C)c4ccc(Cl)cc4Cl)c3n2)CC1C)C(=O)O (mixture of isomers) [Example 55, 3-((2S)-1-(1-(1-((R)-1-(2,4-Dichlorophenyl)ethyl)-3-methyl-1H-pyrazolo[3,4-b]pyrazin-6-yl)-3-methylpiperidin-4-yl)pyrrolidin-2-yl)-2-methoxypropanoic acid 2,2,2-trifluoroacetae]"
3,100 to 500,"Cc1nn([C@H](C)c2ccc(Cl)cc2Cl)c2nc(N3CCC(N4CCC[C@H]4CC(F)C(=O)O)C(C)C3)cnc12 (single isomer, unassigned) [Example 56]"
4,100 to 500,"CCOC(=O)c1nn(C(C)c2ccc(Cl)cc2Cl)c2nc(N3CCC(N4CCCCC4)C(C)C3)cnc12 (centres unmarked) [Example 2, Ethyl 1-(1-(2,4-dichlorophenyl)ethyl)-6-(3′-methyl-[1,4′-bipiperidin]-1′-yl)-1H-pyrazolo[3,4-b]pyrazine-3-carboxylate hydrochloride]"
5,100 to 500,"CC1CN(c2cnc3c(C(N)=O)nn(C(C)c4ccc(Cl)cc4Cl)c3n2)CCC1N1CCCCC1 (centres unmarked) [Example 4, 1-(1-(2,4-Dichlorophenyl)ethyl)-6-(3′-methyl-[1,4′-bipiperidin]-1′-yl)-1H-pyrazolo[3,4-b]pyrazine-3-carboxamide hydrochloride]"
6,100 to 500,"CC1CN(c2cnc3c(C(N)=O)nn([C@H](C)c4ccc(Cl)cc4Cl)c3n2)CCC1N1CCCCC1 (stereo partly drawn) [Example 5, 1-((R)-1-(2,4-Dichlorophenyl)ethyl)-6-(3′-methyl-[1,4′-bipiperidin]-1′-yl)-1H-pyrazolo[3,4-b]pyrazine-3-carboxamide 2,2,2-trifluoroacetate]"
7,100 to 500,"CCC1CN(c2cnc3c(C(N)=O)nn(C(C)c4ccc(Cl)cc4Cl)c3n2)CCC1N1CCCCC1 (centres unmarked) [Example 6, 1-(1-(2,4-Dichlorophenyl)ethyl)-6-(3′-ethyl-[1,4′-bipiperidin]-1′-yl)-1H-pyrazolo[3,4-b]pyrazine-3-carboxamide hydrochloride]"
8,100 to 500,"CCC1CN(c2cnc3cnn(C(C)c4ccc(Cl)cc4Cl)c3n2)CCC1N1CCCCC1 (centres unmarked) [Example 9, 1-(1-(2,4-Dichlorophenyl)ethyl)-6-(3′-ethyl-[1,4′-bipiperidin]-1′-yl)-1H-pyrazolo[3,4-b]pyrazine hydrochloride]"
9,> 500,"CC1CN(c2cnc3c(C(F)(F)F)nn(C(C)c4ccc(Cl)cc4Cl)c3n2)CCC1N1CCCCC1 (centres unmarked) [Example 10, 1-(1-(2,4-Dichlorophenyl)ethyl)-6-(3′-methyl-[1,4′-bipiperidin]-1′-yl)-3-(trifluoromethyl)-1H-pyrazolo[3,4-b]pyrazine hydrochloride]"
10,< 100,"Cc1nn([C@H](C)c2ccc(Cl)cc2Cl)c2nc(N3CC[C@H](N4CCCC4)[C@H](C)C3)cnc12 [Example 12, 1-((R)-1-(2,4-Dichlorophenyl)ethyl)-3-methyl-6-((3R,4S)-3-methyl-4-(pyrrolidin-1-yl)piperidin-1-yl)-1H-pyrazolo[3,4-b]pyrazine hydrochloride]"
11,< 100,"Cc1nn([C@H](C)c2ccc(Cl)cc2Cl)c2nc(N3CC[C@H](N4CCCCCCC4)[C@H](C)C3)cnc12 [Example 16, 6-((3R,4S)-4-(Azocan-1-yl)-3-methylpiperidin-1-yl)-1-((R)-1-(2,4-dichlorophenyl)ethyl)-3-methyl-1H-pyrazolo[3,4-b]pyrazine hydrochloride]"
12,100 to 500,"Cc1nn([C@H](C)c2ccc(Cl)cc2Cl)c2nc(N3CC[C@H](N4CC=CC4)[C@H](C)C3)cnc12 [Example 17, 1-((R)-1-(2,4-Dichlorophenyl)ethyl)-6-((3R,4S)-4-(2,5-dihydro-1H-pyrrol-1-yl)-3-methylpiperidin-1-yl)-3-methyl-1H-pyrazolo[3,4-b]pyrazine hydrochloride]"
13,100 to 500,"Cc1nn([C@H](C)c2ccc(Cl)cc2Cl)c2nc(N3C[C@@H](C)[C@@H](N4CCCC4)C[C@@H]3C)cnc12 [Example 19, 1-((R)-1-(2,4-Dichlorophenyl)ethyl)-6-((2S,4S,5R)-2,5-dimethyl-4-(pyrrolidin-1-yl)piperidin-1-yl)-3-methyl-1H-pyrazolo[3,4-b]pyrazine hydrochloride]"

# Same assay, conditions: hydrochloride
row,SMILES,IC50 [nM]
1,"Cc1nn([C@H](C)c2ccc(Cl)cc2Cl)c2nc(C3=CCC(N4CCC[C@H]4CCC(=O)O)C(C)C3)cnc12 (stereo in doubt) [Example 72, 3-((S)-1-((1R,6S)-4-(1-((R)-1-(2,4-Dichlorophenyl)ethyl)-3-methyl-1H-pyrazolo[3,4-b]pyrazin-6-yl)-6-methylcyclohex-3-en-1-yl)pyrrolidin-2-yl)propanoic acid hydrochloride]",> 500
